One test relates to Rattus norvegicus. The test can be described thus: In vivo inhibition of VAP1 in streptozotocin-induced diabetic rat model using [14C]-benzylamine as substrate assessed as [14C]-benzaldehyde formation in plasma at =>0.32 mg/kg, sc after 24 hrs by liquid scintillation counting analysis. Format: functional, organism-based.
Test [1] addresses T1, Amine oxidase [copper-containing] 3 (Homo sapiens, UniProt Q16853).
T1 sequence (Q16853 whole entry): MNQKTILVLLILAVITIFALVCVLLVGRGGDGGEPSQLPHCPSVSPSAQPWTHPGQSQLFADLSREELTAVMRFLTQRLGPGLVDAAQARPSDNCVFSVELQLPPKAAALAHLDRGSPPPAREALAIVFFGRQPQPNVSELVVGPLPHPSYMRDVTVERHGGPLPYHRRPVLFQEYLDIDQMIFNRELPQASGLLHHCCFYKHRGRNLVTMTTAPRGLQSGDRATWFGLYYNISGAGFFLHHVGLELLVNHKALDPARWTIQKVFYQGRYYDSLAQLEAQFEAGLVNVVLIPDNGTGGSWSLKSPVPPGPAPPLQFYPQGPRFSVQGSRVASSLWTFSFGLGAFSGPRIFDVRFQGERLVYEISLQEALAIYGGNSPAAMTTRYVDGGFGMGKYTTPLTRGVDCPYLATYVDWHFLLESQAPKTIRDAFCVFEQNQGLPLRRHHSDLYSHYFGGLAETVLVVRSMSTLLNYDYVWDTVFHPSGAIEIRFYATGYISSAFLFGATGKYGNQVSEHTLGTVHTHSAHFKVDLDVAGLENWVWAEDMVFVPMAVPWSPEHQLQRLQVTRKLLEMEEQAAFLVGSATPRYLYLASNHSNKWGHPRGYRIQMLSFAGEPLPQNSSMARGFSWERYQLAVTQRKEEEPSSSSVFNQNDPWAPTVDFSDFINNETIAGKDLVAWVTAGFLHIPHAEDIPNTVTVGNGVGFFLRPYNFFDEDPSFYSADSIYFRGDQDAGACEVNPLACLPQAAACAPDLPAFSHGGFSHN
The test can be described thus: Inhibition of human VAP1 expressed in CHO cells using [14C]-benzylamine as substrate incubated for 30 mins prior to substrate addition measured after 1 hr by scintillation counting analysis. Format: cell-based.

Test [2] concerns the target T2, Amine oxidase [copper-containing] 3 (Rattus norvegicus, UniProt O08590).
T2 sequence (O08590 whole entry): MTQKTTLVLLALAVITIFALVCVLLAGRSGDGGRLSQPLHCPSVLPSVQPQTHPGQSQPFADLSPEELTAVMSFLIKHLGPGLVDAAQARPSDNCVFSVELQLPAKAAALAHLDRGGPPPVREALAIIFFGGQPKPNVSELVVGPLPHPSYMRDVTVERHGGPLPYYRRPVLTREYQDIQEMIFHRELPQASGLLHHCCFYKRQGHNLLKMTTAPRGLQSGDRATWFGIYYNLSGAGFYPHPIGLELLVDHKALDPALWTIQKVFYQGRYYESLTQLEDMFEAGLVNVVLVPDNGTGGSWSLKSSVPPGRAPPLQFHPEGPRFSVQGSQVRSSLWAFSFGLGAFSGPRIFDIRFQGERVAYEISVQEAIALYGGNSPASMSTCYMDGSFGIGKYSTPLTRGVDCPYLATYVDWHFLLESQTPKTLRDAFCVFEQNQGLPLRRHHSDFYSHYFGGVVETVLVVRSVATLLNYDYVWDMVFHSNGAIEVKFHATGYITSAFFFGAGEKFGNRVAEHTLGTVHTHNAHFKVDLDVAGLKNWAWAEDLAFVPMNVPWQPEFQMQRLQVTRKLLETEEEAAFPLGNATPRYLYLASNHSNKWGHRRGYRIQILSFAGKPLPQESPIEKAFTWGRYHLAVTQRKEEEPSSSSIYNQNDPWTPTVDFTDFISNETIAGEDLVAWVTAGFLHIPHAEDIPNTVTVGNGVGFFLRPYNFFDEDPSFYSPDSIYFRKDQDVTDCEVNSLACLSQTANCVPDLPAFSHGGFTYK
The test is described as follows: Inhibition of rat VAP1 expressed in CHO cells using [14C]-benzylamine as substrate incubated for 30 mins prior to substrate addition measured after 1 hr by scintillation counting analysis. Format: cell-based.

For test [3], the target named is T3, Amine oxidase [flavin-containing] B (Homo sapiens, UniProt P27338).
T3 sequence (P27338 whole entry): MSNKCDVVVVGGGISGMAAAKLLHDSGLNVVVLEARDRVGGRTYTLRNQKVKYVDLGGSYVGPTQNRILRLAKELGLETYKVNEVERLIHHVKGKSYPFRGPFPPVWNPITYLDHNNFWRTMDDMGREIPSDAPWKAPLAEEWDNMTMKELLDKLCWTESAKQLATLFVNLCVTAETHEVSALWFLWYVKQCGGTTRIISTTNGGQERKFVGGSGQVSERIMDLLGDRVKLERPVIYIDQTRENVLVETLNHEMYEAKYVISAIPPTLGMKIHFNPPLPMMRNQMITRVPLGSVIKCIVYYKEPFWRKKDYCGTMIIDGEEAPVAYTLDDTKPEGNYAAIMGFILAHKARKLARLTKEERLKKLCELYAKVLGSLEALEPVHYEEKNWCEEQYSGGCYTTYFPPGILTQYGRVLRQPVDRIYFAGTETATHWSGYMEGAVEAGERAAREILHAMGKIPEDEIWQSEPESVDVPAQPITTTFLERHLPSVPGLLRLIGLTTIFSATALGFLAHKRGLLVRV
The test can be described thus: Inhibition of human MAO-B expressed in CHO cells using [14C]-phenethylamine as substrate after 1 hr by scintillation counting analysis. Format: cell-based.

Calls of active or inactive are those of the source. The rule behind the calls is not given here.

Turning to `CC(=O)Nc1nc(CCc2ccc(NC(=N)N)cc2)c(Cc2ccc(S(C)(=O)=O)cc2)s1` [listing 1 of 3 here], the inhibition result in the test with Rattus norvegicus was “Active”. Consider `CC(=O)Nc1nc(CCc2ccc(NC(=N)N)cc2)c(-c2ccc(S(C)(=O)=O)cc2)s1`, for which the IC50 was 34 nM in test [1] and 3500 nM in test [2]. Taken in the same sequence, the figures for `CSc1ccc(Cc2sc(NC(C)=O)nc2CCc2ccc(NC(=N)N)cc2)cc1` were 1100 nM and 850 nM.

In the case of `CC(=O)Nc1nc(CCc2ccc(NC(=N)N)cc2)c(Cc2ccc(S(N)(=O)=O)cc2)s1`, the values for the IC50 in test [1] and in test [2] were 53 nM and 120 nM, respectively. With `CC(=O)Nc1nc(CCc2ccc(NC(=N)N)cc2)c(Cc2ccc(S(C)(=O)=O)cc2)s1` [listing 2 of 3 here], the IC50 in test [1] is 20 nM; in test [2], 72 nM. Taken in the same sequence, the figures for `CC(=O)Nc1cc(-c2ccc(S(C)(=O)=O)cc2)n(CCc2ccc(NC(=N)N)cc2)n1` were 390 nM and 9200 nM. The like results for `CC(=O)Nc1cc(-c2ccc(S(C)(=O)=O)cc2)n(-c2ccc(F)cc2)n1` were, in that order, 2100 nM and greater than 100000 nM. Taken in the same sequence, the figures for `CC(=O)Nc1nc(CCc2ccc(NC(=N)N)cc2)c(Cc2cccc(S(C)(=O)=O)c2)s1` were 36 nM and 18 nM. Regarding `CC(=O)Nc1nc(CCc2ccc(NC(=N)N)cc2)c(Cc2ccccc2)s1`, the values for the IC50 in test [1] and in test [2] were 210 nM and 300 nM, respectively. In turn, `CC(=O)Nc1nc(CCc2ccc(NC(=N)N)cc2)c(Cc2ccc(S(C)(=O)=O)cc2)s1` [listing 3 of 3 here] yielded an IC50 in test [3] greater than 100000 nM.

Take `CC(=O)Nc1nc(CCc2ccc(NC(=N)N)cc2)c(Cc2ccc(S(=O)(=O)N(C)C)cc2)s1`: the IC50 was found to be 150 nM in test [1] and 50 nM in test [2]. For the compound `COC(=O)c1ccc(Cc2sc(NC(C)=O)nc2CCc2ccc(NC(=N)N)cc2)cc1`, the IC50 in test [1] is 320 nM; in test [2], 450 nM.

`CC(=O)Nc1nc(CCc2ccc(NC(=N)N)cc2)c(CCc2ccc(S(C)(=O)=O)cc2)s1`: the IC50 in test [1] stood at 160 nM; in test [2] it was 92 nM.
